The values below come from PubChem BioAssay (NCI).

Each structure is given as a SMILES string. Several values for one entry are separate records, joined by “and”; a condition that tells them apart may be missing. Identical values can stand only once.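 How tested: cells in 96-well plates exposed to compound for 48 hours at five concentrations. GI50 is the concentration that inhibits growth by half. The concentration for full growth arrest is given as TGI.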 Peptide text beside a SMILES is read from it. * marks the point of attachment. Boc = CC(C)(C)OC(=O)*

What all share (experiment): growth of human tumour cells (NCI), 48 h
Assay [1] has as its system KM12 colon.
Assay [2] deals with UO-31 renal.
For assay [3], the system named is SF-268 CNS.
In assay [4] the test system is CCRF-CEM leukemia.
Assay [5] has as its system RPMI-8226 leukemia.
Assay [6] has as its system TK-10 renal.
In assay [7] the test system is HS 578T breast.
Assay [8] concerns MDA-N.
For assay [9], the system named is SW-620 colon.
The subject of assay [10] is K-562 leukemia.

For the molecule `Cc1c(-c2coc(-c3ccc(Cl)cc3)n2)c(=O)n(-c2ccccc2)n1C`, the TGI in assay [1], in assay [2], in [3], in assay [4], in assay [5] and in assay [6] was more than 100 µM in each case.

Turning to `Clc1ncc(C(Cl)(Cl)Cl)nc1-c1ccccc1`, the TGI is 3.43 µM in assay [1]; 6.95 µM in assay [7]; 3.34 µM in assay [2]; 3.82 µM in assay [8]; more than 100 µM in assay [9]; 5.09 µM in [3]. The TGI in assay [4] was more than 100 µM; in assay [6], 5.39 µM; in [10] it was 12.4 µM.

With `CSCCC(NC(=O)C(CC(C)C)NC(=O)CNC(=O)OC(C)(C)C)C(=O)N(C)C` (stereo not drawn) (Boc-Gly-Leu-Met-NMe2; configuration not given here), the TGI in assay [1], in assay [7], in assay [2], in assay [8], in [9] and in [3] was more than 100 µM in each case. Moreover, the TGI in assay [4], in [6] and in assay [10] was more than 100 µM each time.

As for `COc1cc2c(cc1OC)C1Cc3ccccc3CN1CCC2` (configuration not stated), the TGI in [1], in assay [7], in assay [8], in [9], in assay [3] and in assay [4] was more than 100 µM in each case. Moreover, the TGI in assay [6] and in assay [10] was more than 100 µM throughout.

For `C/C(=N\O)c1ccc(Nc2c3ccccc3nc3occc23)cc1`, the TGI was 27.4 µM in assay [1]; more than 50 µM in assay [2]; more than 50 µM in assay [8]; more than 50 µM in assay [9]; more than 43.9 µM in [3]; 1.89 µM in [4]. In addition, the results for the TGI in assay [5], in assay [6] and in [10] were 3.26 µM, 25.4 µM and more than 50 µM, respectively.

In the case of `COc1cccc(N2N=C3c4ccccc4-n4c(nc5ccccc54)C3C2N)c1` (configuration not stated), the TGI in assay [1], in [7], in [2], in assay [8], in assay [9] and in assay [3] was more than 100 µM each time. For the same molecule, the TGI in assay [5] and in [6] was more than 100 µM each time.

As for `COc1ccc(S(=O)(=O)Nc2ccc(-c3csc(N4C(=O)/C(=C/C=C\c5ccccc5)N=C4c4ccccc4)n3)cc2)cc1Cl`, the TGI in [1] was 97.1 µM; in [7] it was 85.5 µM; in assay [2], 58.6 µM; in assay [8], 80.7 µM; in [9], more than 100 µM; in [3], 56.3 µM. The TGI in [4], in [6] and in assay [10] was more than 100 µM each time.

On to `CCN(CC)c1ccc(C(=C2C=CC(=[N+](CC)CC)C=C2)c2ccccc2)cc1`, for which the TGI worked out at 0.124 µM in assay [1]; 0.185 µM in assay [2]; 0.138 µM in [9]; 0.195 µM in assay [3]; 0.0401 µM in assay [4]; 0.0683 µM in [5]. The TGI in [10] came out at 0.0968 µM.

For the molecule `C=C1C(=O)C[C@@]23CCC[C@@]12CC(O)C3` (some centres not stated), the TGI in assay [1] is 51.3 µM; in assay [2] it was more than 94.6 µM; in assay [9], 37.2 µM; in [3] it was more than 100 µM; in assay [4] it was 56.2 µM; in [5] it was 61.3 µM. The TGI in assay [10] was more than 87 µM.

Regarding `COc1cc2c(c(OC)c1OC)-c1ccc(SC)c(=O)cc1[C@@H](NC(=O)c1ccc(C#N)cc1)CC2`, the TGI in assay [2] was more than 100 µM; in assay [9], more than 100 µM; in [3], more than 48.7 µM; in assay [5] it was more than 100 µM; in assay [6], more than 100 µM; in [10], more than 100 µM.

Take `CC(=O)c1c(O)c(C)c(O)c2c1OC1=CC(=O)C(C(C)=O)C(=O)C12C` (configuration not stated): the GI50 is 6.21 µM and 19 µM in assay [1]; 1.96 µM and 18.2 µM in assay [2]; 6.44 µM and 27.5 µM in assay [9]; 9.46 µM and 26.1 µM in assay [3]; 4.26 µM and 20.7 µM in [4]; 3.88 µM and 9.02 µM in assay [5]. In addition, the GI50 in assay [10] is 4.62 µM and 23 µM. In addition, the TGI in assay [1] was 32.2 µM and 63.5 µM; in assay [2], 7.08 µM and 53.6 µM; in assay [9], 41.3 µM and 86 µM; in assay [3] it was 42.2 µM and 91.7 µM; in [4], 26.2 µM and 72.6 µM; in [5], 24.2 µM and 49.7 µM. In addition, in assay [10], the TGI was 24.3 µM and 84.8 µM.

Regarding `CC(=O)Nc1ccc(C(=O)N2N=C(C)/C(=C/c3cccc(O)c3)C2=O)cc1`, the TGI in [2], in assay [9], in assay [3], in assay [4], in assay [6] and in [10] was more than 100 µM in each case.

In the case of `COC1(OC)/C(=C(\N)C=O)NC(C)(C)N1O`, the TGI in assay [1], in assay [2], in assay [8], in [9], in assay [4] and in assay [5] was more than 100 µM throughout. Besides, the TGI in assay [10] is more than 100 µM.

For the molecule `CN1C(=O)[C@@]2(C=CC3(CC2)OCCO3)c2ccccc21`, the TGI in assay [1] was more than 50 µM; in assay [2], more than 50 µM; in assay [8], more than 50 µM; in assay [9], more than 50 µM; in assay [3], 32.2 µM; in assay [4], more than 50 µM. The TGI in assay [5], in [6] and in assay [10] was more than 50 µM each time.

As for `C=C1c2nc3ccccc3n2C=C(c2ccccc2)N1c1ccc(OC)cc1`, the TGI in assay [1] is 24.3 µM; in assay [2] it was 26.6 µM; in assay [8], more than 100 µM; in assay [9], more than 100 µM; in [4], more than 100 µM; in assay [5] it was more than 100 µM. Also, the TGI in assay [6] is 26.1 µM; in assay [10], more than 100 µM.
